In patent US11807693B2 (priority 2014, dated 2023):
Starred links: 1 amine or outer side, 2 acyl side, 3 side chain; linkers in the order of their positions; H or OH if unused. Non-standard residues stand in square brackets, D forms with d. Residues, ends and D or L forms follow the SMILES beside them. *: point of attachment. Oic = O=C(O)[C@@H]1C[C@@H]2CCCC[C@@H]2N1; Phe(4-Cl) = N[C@@H](Cc1ccc(Cl)cc1)C(=O)O; dPhe(4-Cl) = N[C@H](Cc1ccc(Cl)cc1)C(=O)O; γGlu = O=C(O)[C@H](CCC(=O)[*:2])N[*:1]; 2Nal = N[C@@H](Cc1ccc2ccccc2c1)C(=O)O; d(β3hF) = N[C@@H](CC(=O)O)Cc1ccccc1; NMeR = CN[C@@H](CCCNC(=N)N)C(=O)O; Palmitoyl = CCCCCCCCCCCCCCCC(=O)*; Tridecanoyl = CCCCCCCCCCCCC(=O)*; hArg = N=C(N)NCCCC[C@H](N)C(=O)O; 3Pal = N[C@@H](Cc1cccnc1)C(=O)O; Cha = N[C@@H](CC1CCCCC1)C(=O)O; NMeL = CN[C@@H](CC(C)C)C(=O)O; αMeL = CC(C)C[C@](C)(N)C(=O)O; β3hN = NC(=O)C[C@H](N)CC(=O)O; Tle = CC(C)(C)[C@H](N)C(=O)O; β3hP = O=C(O)C[C@@H]1CCCN1; Pip = O=C(O)[C@@H]1CCCCN1; Nle = CCCC[C@H](N)C(=O)O; Orn = NCCC[C@H](N)C(=O)O; Deg = CCC(N)(CC)C(=O)O; AEEA = NCCOCCOCC(=O)O

Target: T1, rat APJ receptor (Rattus norvegicus, UniProt Q9JHG3)
T1 construct: expressed in transfected cells
T1 sequence (Q9JHG3 1-377): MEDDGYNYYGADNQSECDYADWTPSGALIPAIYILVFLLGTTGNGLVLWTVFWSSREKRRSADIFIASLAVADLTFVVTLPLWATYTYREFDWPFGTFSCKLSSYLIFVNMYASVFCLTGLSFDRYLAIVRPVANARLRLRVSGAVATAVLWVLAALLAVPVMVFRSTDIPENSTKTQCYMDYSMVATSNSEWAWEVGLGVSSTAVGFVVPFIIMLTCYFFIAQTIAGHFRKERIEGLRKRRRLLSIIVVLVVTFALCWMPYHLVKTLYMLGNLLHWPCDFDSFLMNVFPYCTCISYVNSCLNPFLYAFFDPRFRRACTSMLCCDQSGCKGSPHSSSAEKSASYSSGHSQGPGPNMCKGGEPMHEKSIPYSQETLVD
Assay: [35S] GTPγS assay, rat APJ receptor
Format: biochemical
Conditions: Table 16, read-out: EC50 Rat APJ Receptor
Protocol: The membranes were incubated with modified peptides in the assay buffer. […] Bound [^35S] GTPγS was separated from free radiolabel by filtration. The filter bound radioactivity was determined by liquid scintillation counting.

| Compound | EC50 [nM] |
| --- | --- |
| CCCCCCCCCCCCC(=O)N[C@@H](CCC(=O)NCCOCCOCC(=O)NCCOCCOCC(=O)N[C@@H](CCC(N)=O)C(=O)N[C@@H](CCCNC(=N)N)C(=O)N1CCC[C@H]1C(=O)N(C)[C@@H](CCCNC(=N)N)C(=O)N[C@@H](CC(C)C)C(=O)N[C@@H](CO)C(=O)N[C@@H](Cc1c[nH]cn1)C(=O)N[C@@H](CCCCN)C(=O)NCC(=O)N1CCC[C@H]1C(=O)N[C@@H](CCCC)C(=O)N[C@@H](Cc1ccc2ccccc2c1)C(=O)O)C(=O)O [compound 403] ({Tridecanoyl-γGlu-AEEA-AEEA}-QRP[NMeR]LSHKGP[Nle][2Nal]-OH) | 8.1 |
| CCCCCCCCCCCCC(=O)N[C@@H](CCC(=O)NCCOCCOCC(=O)NCCOCCOCC(=O)N[C@@H](CCC(N)=O)C(=O)N[C@@H](CCCNC(=N)N)C(=O)N1CCC[C@H]1C(=O)N[C@@H](CCCCNC(=N)N)C(=O)N[C@@](C)(CC(C)C)C(=O)N[C@@H](CO)C(=O)N[C@@H](Cc1c[nH]cn1)C(=O)N[C@@H](CCCCN)C(=O)NCC(=O)N1CCC[C@H]1C(=O)N[C@@H](CCCC)C(=O)N1CCC[C@H]1C(=O)N[C@@H](Cc1ccc2ccccc2c1)C(=O)O)C(=O)O [compound 404] ({Tridecanoyl-γGlu-AEEA-AEEA}-QRP[hArg][αMeL]SHKGP[Nle]P[2Nal]-OH) | 0.361 |

Second part, the compound after the results:

| EC50 [nM] | Compound |
| --- | --- |
| 10.3 | CCCCCCCCCCCCC(=O)N[C@@H](CCC(=O)NCCOCCOCC(=O)NCCOCCOCC(=O)N[C@H](CCC(N)=O)C(=O)N[C@@H](CCCCNC(=N)N)C(=O)NC(CC)(CC)C(=O)N[C@H](CCCNC(=N)N)C(=O)N[C@@H](CC1CCCCC1)C(=O)N[C@@H](CO)C(=O)N[C@@H](Cc1c[nH]cn1)C(=O)N[C@@H](CCCCN)C(=O)NCC(=O)N1[C@H](C(=O)N[C@@H](CCCC)C(=O)N2CCC[C@H]2C(=O)N[C@@H](Cc2ccc(Cl)cc2)C(=O)O)C[C@@H]2CCCC[C@@H]21)C(=O)O [compound 455] ({Tridecanoyl-γGlu-AEEA-AEEA}-[dQ][hArg][Deg][dR][Cha]SHKG[Oic][Nle]P[Phe(4-Cl)]-OH) |
| 19.8 | CCCCCCCCCCCCC(=O)N[C@@H](CCC(=O)NCCOCCOCC(=O)NCCOCCOCC(=O)N[C@H](CCC(N)=O)C(=O)N[C@@H](CCCCNC(=N)N)C(=O)N1CCC[C@H]1C(=O)N[C@H](CCCNC(=N)N)C(=O)N[C@H](C(=O)N[C@@H](CO)C(=O)N[C@@H](Cc1c[nH]cn1)C(=O)N[C@@H](CCCCN)C(=O)NCC(=O)N1[C@H](C(=O)N[C@@H](CCCC)C(=O)N2CCC[C@H]2C(=O)N[C@@H](Cc2ccc(Cl)cc2)C(=O)O)C[C@@H]2CCCC[C@@H]21)C(C)(C)C)C(=O)O [compound 433] ({Tridecanoyl-γGlu-AEEA-AEEA}-[dQ][hArg]P[dR][Tle]SHKG[Oic][Nle]P[Phe(4-Cl)]-OH) |
| 0.0627 | CCCCCCCCCCCCC(=O)N[C@@H](CCC(=O)NCCOCCOCC(=O)NCCOCCOCC(=O)N[C@@H](CCC(N)=O)C(=O)N[C@@H](CCCCNC(=N)N)C(=O)N1CCC[C@H]1C(=O)N(C)[C@@H](CCCNC(=N)N)C(=O)N[C@@](C)(CC(C)C)C(=O)N[C@@H](CO)C(=O)N[C@@H](Cc1c[nH]cn1)C(=O)N[C@@H](CCCCN)C(=O)NCC(=O)N1CCC[C@H]1C(=O)N[C@@H](CCCC)C(=O)N1CCC[C@H]1C(=O)N[C@@H](Cc1ccc(Cl)cc1)C(=O)O)C(=O)O [compound 460] |

Same assay, conditions: aqueous stock, absence of DMSO, read-out: rAPJ EC50

| EC50 [nM] | Compound |
| --- | --- |
| 390 | {H2}[MerPr](10K mPEGacetamide)QRPRLSHKGPMPF{COOH} (N-terminal MerPr 10K mPEG acetamide; source: /note="N-term MerPr(10KmPEGacetamide)") [SEQ ID NO: 110, reference compound] |

Same assay, conditions: rat APJ receptor, read-out: EC50 Rat APJ Receptor

| Compound | EC50 [nM] |
| --- | --- |
| CCCC[C@H](NC(=O)[C@@H]1CCCN1C(=O)CNC(=O)[C@H](CCCCN)NC(=O)[C@H](Cc1c[nH]cn1)NC(=O)[C@H](CO)NC(=O)[C@H](CC(C)C)N(C)C(=O)[C@H](CCCNC(=N)N)N(C)C(=O)[C@@H]1CCCN1C(=O)[C@H](CCCNC(=N)N)NC(=O)[C@H](CCC(N)=O)NC(=O)[C@H](CCCNC(=N)N)NC(C)=O)C(=O)N1CCC[C@H]1C(=O)N[C@@H](Cc1ccc(Cl)cc1)C(=O)O [compound 67] (Ac-RQRP[NMeR][NMeL]SHKGP[Nle]P[Phe(4-Cl)]-OH) | 1.4 |
| CSCC[C@H](NC(=O)[C@@H]1CCCN1C(=O)CNC(=O)[C@H](CCCCN)NC(=O)[C@H](Cc1c[nH]cn1)NC(=O)[C@H](CO)NC(=O)[C@H](CC(C)C)NC(=O)[C@H](CCCNC(=N)N)NC(=O)[C@@H]1CCCN1C(=O)[C@H](CCCNC(=N)N)NC(=O)[C@H](CCC(N)=O)NC(=O)[C@H](CCCNC(=N)N)NC(=O)[C@H](CCCNC(=N)N)NC(=O)[C@H](Cc1ccccc1)NC(=O)[C@@H](N)CCCCN)C(=O)N1CCC[C@H]1C(=O)O [compound 12] | 5.81 |
| CCCCCCCCCCCCC(=O)N[C@@H](CCC(=O)NCCOCCOCC(=O)NCCOCCOCC(=O)NCCOCCOCC(=O)NCCOCCOCC(=O)NCCOCCOCC(=O)NCCOCCOCC(=O)N[C@@H](CCC(N)=O)C(=O)N[C@@H](CCCNC(=N)N)C(=O)N1CCC[C@H]1C(=O)N(C)[C@@H](CCCNC(=N)N)C(=O)N[C@@H](CC(C)C)C(=O)N[C@@H](CO)C(=O)N[C@@H](Cc1c[nH]cn1)C(=O)N[C@@H](CCCCN)C(=O)NCC(=O)N1CCC[C@H]1C(=O)N[C@@H](CCCC)C(=O)N1CCC[C@H]1C(=O)N[C@@H](Cc1ccc(Cl)cc1)C(=O)O)C(=O)O [compound 398] | 0.116 |
| CCCCCCCCCCCCC(=O)N[C@@H](CCC(=O)NCCOCCOCC(=O)NCCOCCOCC(=O)N[C@@H](CC(N)=O)CC(=O)N[C@@H](CCCCNC(=N)N)C(=O)N1CCC[C@H]1C(=O)N(C)[C@@H](CCCNC(=N)N)C(=O)N[C@@H](CC1CCCCC1)C(=O)N[C@@H](CO)C(=O)N[C@@H](Cc1c[nH]cn1)C(=O)N[C@@H](CCCCN)C(=O)NCC(=O)N1[C@H](C(=O)N[C@@H](CCCC)C(=O)N2CCC[C@H]2C(=O)N[C@H](Cc2ccc(Cl)cc2)C(=O)O)C[C@@H]2CCCC[C@@H]21)C(=O)O [compound 299] ({Tridecanoyl-γGlu-AEEA-AEEA}-[β3hN][hArg]P[NMeR][Cha]SHKG[Oic][Nle]P[dPhe(4-Cl)]-OH) | 14.6 |
| CCCC[C@H](NC(=O)[C@@H]1CCCN1C(=O)CNC(=O)[C@H](CCCCN)NC(=O)[C@H](Cc1c[nH]cn1)NC(=O)[C@H](CO)NC(=O)[C@H](CC(C)C)N(C)C(=O)[C@H](CCCNC(=N)N)NC(=O)[C@@H]1CCCN1C(=O)[C@H](CCCNC(=N)N)NC(=O)[C@H](CCC(N)=O)NC(=O)[C@H](CCCNC(=N)N)NC(C)=O)C(=O)N1CCC[C@H]1C(=O)N[C@@H](Cc1ccc(Cl)cc1)C(=O)O [compound 64] (Ac-RQRPR[NMeL]SHKGP[Nle]P[Phe(4-Cl)]-OH) | 0.411 |

The next lines start with the values.

| EC50 [nM] | Compound |
| --- | --- |
| 0.147 | CCCCCCCCCC(=O)N[C@@H](CCC(=O)NCCOCCOCC(=O)NCCOCCOCC(=O)N[C@@H](CCC(N)=O)C(=O)N[C@@H](CCCNC(=N)N)C(=O)N1CCC[C@H]1C(=O)N(C)[C@@H](CCCNC(=N)N)C(=O)N[C@@H](CC(C)C)C(=O)N[C@@H](CO)C(=O)N[C@@H](Cc1c[nH]cn1)C(=O)N[C@@H](CCCCN)C(=O)NCC(=O)N1CCC[C@H]1C(=O)N[C@@H](CCCC)C(=O)N1CCC[C@H]1C(=O)N[C@@H](Cc1ccc(Cl)cc1)C(=O)O)C(=O)O [compound 494] |
| 14.9 | CCCCCCCCCCCCCCCC(=O)N[C@@H](CCC(=O)NCCOCCOCC(=O)NCCOCCOCC(=O)N[C@H](CCC(N)=O)C(=O)N[C@@H](CCCNC(=N)N)C(=O)N1CCC[C@H]1C(=O)N(C)[C@@H](CCCNC(=N)N)C(=O)N[C@@H](CC1CCCCC1)C(=O)N[C@@H](CO)C(=O)N[C@@H](Cc1c[nH]cn1)C(=O)N[C@@H](Cc1cccnc1)C(=O)NCC(=O)N1[C@H](C(=O)N[C@@H](CCCC)C(=O)N2CCC[C@H]2CC(=O)N[C@@H](CC(=O)O)Cc2ccccc2)C[C@@H]2CCCC[C@@H]21)C(=O)O [compound 620] ({Palmitoyl-γGlu-AEEA-AEEA}-[dQ]RP[NMeR][Cha]SH[3Pal]G[Oic][Nle][β3hP][d(β3hF)]-OH) |
| 2.83 | CCCCCCCCCCCCCCCC(=O)N[C@@H](CCC(=O)NCCOCCOCC(=O)NCCOCCOCC(=O)N[C@H](CCC(N)=O)C(=O)N[C@@H](CCCNC(=N)N)C(=O)N1CCC[C@H]1C(=O)N(C)[C@@H](CCCNC(=N)N)C(=O)N[C@@H](CC1CCCCC1)C(=O)N[C@@H](CO)C(=O)N[C@@H](Cc1c[nH]cn1)C(=O)N[C@@H](CCCCN)C(=O)NCC(=O)N1CCCC[C@H]1C(=O)N[C@@H](CCCC)C(=O)N[C@@H](CC(=O)O)Cc1ccccc1)C(=O)O [compound 574] ({Palmitoyl-γGlu-AEEA-AEEA}-[dQ]RP[NMeR][Cha]SHKG[Pip][Nle][d(β3hF)]-OH) |
| 0.147 | CCCCCC(=O)N[C@@H](CCC(=O)NCCOCCOCC(=O)NCCOCCOCC(=O)N[C@@H](CCC(N)=O)C(=O)N[C@@H](CCCNC(=N)N)C(=O)N1CCC[C@H]1C(=O)N(C)[C@@H](CCCNC(=N)N)C(=O)N[C@@H](CC(C)C)C(=O)N[C@@H](CO)C(=O)N[C@@H](Cc1c[nH]cn1)C(=O)N[C@@H](CCCCN)C(=O)NCC(=O)N1CCC[C@H]1C(=O)N[C@@H](CCCC)C(=O)N1CCC[C@H]1C(=O)N[C@@H](Cc1ccc(Cl)cc1)C(=O)O)C(=O)O [compound 492] |

Same assay, conditions: read-out: EC50 Rat APJ Receptor

| EC50 [nM] | Compound |
| --- | --- |
| 0.486 | CCCC[C@H](NC(=O)[C@@H]1CCCN1C(=O)CNC(=O)[C@H](CCCCN)NC(=O)[C@H](Cc1c[nH]cn1)NC(=O)[C@H](CO)NC(=O)[C@H](CC1CCCCC1)NC(=O)[C@H](CCCCNC(=N)N)NC(=O)[C@@H]1CCCN1C(=O)[C@H](CCCNC(=N)N)NC(=O)[C@H](CCC(N)=O)NC(=O)[C@H](CCCCNC(=N)N)NC(=O)[C@H](CCCCNC(=N)N)NC(=O)[C@H](Cc1ccccc1)NC(=O)[C@H](CCCN)NC(C)=O)C(=O)N[C@@H](Cc1ccc(Cl)cc1)C(=O)O [compound 48] (Ac-[Orn]F[hArg][hArg]QRP[hArg][Cha]SHKGP[Nle][Phe(4-Cl)]-OH) |
